Entries after “also recorded” stand apart in the source; their conditions may differ. Read-outs that look alike come from different tables or passages of the source.
How the values were obtained:
platelet aggregation = experiment: Inhibition of platelet aggregation in platelet-rich plasma (aggregometer); format: cell-based, rabbits (male); conditions: for IC50: Oryctolagus cuniculus, Platelet; for Percent Inhibition, Collagen: Collagen (5 × 10^-4 g/ml)
Method: A blood sample drawn from a jugular vein of unanesthetized male rabbits (body weight: 2.2 to 2.6 kg) was mixed with a 3.8% aqueous sodium citrate solution in a proportion of 9:1 (by volume) and the mixture was centrifuged at 1,000 rpm for 10 minutes to obtain a platelet-rich plasma (about 5×10^5 platelets/mm^3, hereinafter "PRP"). To […] of PRP was added […] of an aqueous solution of the test compound and, after 2 hours, to the mixture was added either an adenosine diphosphate (ADP) solution (final concentration: 5×10^-6 M), a sodium arachidonate solution (final concentration: 5×10^-4 M) or collagen. The percent platelet aggregation was determined using an aggregometer and the inhibition of platelet aggregation by the test compound was calculated.

Alloxan Diabetes Mice [1] = experiment: Hypoglycemic activity (a): effect on alloxan diabetes mice, blood sugar 2 hours after oral administration; format: in vivo, mice (ddY male); conditions: for % Change in Blood Sugar Level / Blood Sugar Level Mean ± S.E.: 2 hours after administration; for Blood Sugar Level Mean ± S.E.: alloxan 40 mg/kg i.v.
Method: Alloxan was administered intravenously at a dose of 40 mg/kg from a tail vein to ddY male mice weighing 28.2 to 29.5 g. Seven days after administration, the test compound was administered orally to the mice and the blood sugar level was determined before and 2 hours after the administration of the test compound.

Alloxan Diabetes Rats [2] = experiment: Hypoglycemic activity (b)(1): effect on alloxan diabetes rats, blood sugar 2 hours after oral administration; format: in vivo, rats (Wister male); conditions: for % Change in Blood Sugar Level / Blood Sugar Level Mean ± S.E.: 2 hours after administration; for Blood Sugar Level Mean ± S.E.: alloxan 30 mg/kg i.v.
Method: (1) Alloxan was administered intravenously at a dose of 30 mg/kg from a tail vein to Wister male rats weighing 200 to 218 g. Three days after administration, the test compound was administered orally to the rats and the blood sugar level was determined before and 2 hours after administration of the test compound.

Alloxan Diabetes Mice [3] = experiment: Hypoglycemic activity (c): effect on alloxan diabetes mice, ED20; format: in vivo, mice (ddY male); conditions: Mus musculus; oral; 3 hours after administration; alloxan 50 mg/kg i.v.
Method: (§1) Alloxan was administered intravenously at a dose of 50 mg/kg from a tail vein to 5W ddY male mice weighing 23 to 27 g (10 […] per group). Seven days after administration, the test compound was administered orally to the mice and a blood sample was collected from the sacrificed mice after 3 hours. The blood sugar level of the sample was determined by the o-toluidine-boric acid method. The percent inhibition was calculated from the values in test group and the control, and a 20% inhibitory effective dose (ED20) was determined from a dose response curve.

Normal Mice = experiment: Hypoglycemic activity (d): effect on normal mice, ED20; format: in vivo, mice (ddY male); conditions: Mus musculus; oral; 3 hours after administration
Method: as §1
The test compound was administered orally to 6W ddY male mice and, 3 hours after administration, a blood sample was drawn from the sacrificed mice. The blood sugar level of the sample was determined and ED20 values were calculated in the same manner as described in (c) above.

[4] = Acute toxicity (Behrens-Karber method); conditions: mouse, in vivo, mortality one week after administration
Method: The test compound was administered orally (p.o.) or intravenously (i.v.) from a tail vein to ddY male mice weighing 24±2 g. The LD50 values were calculated by the Behrens-Karber method [Arch. exp. Path. Pharmak., 177, 379 (1935)] from the mortality one week after administration.

[5] = target: T1, ileum of Hartley male guinea pig (histamine) (Cavia porcellus, UniProt P31389); experiment: Anti-histamine activity on isolated ileum (Magnus tube, cumulative technique); conditions: for Kb: Tyrode solution, 25±0.5° C., histamine added after 5 minutes, read-out: pA2 Value (converted)
T1 construct: The ileum of Hartley male guinea pig (body weight: 350-400 g) was extracted and suspended in a Magnus tube; from tissue; host or cells: isolated ileum of Hartley male guinea pig
Method: The ileum of Hartley male guinea pig (body weight: 350-400 g) was extracted and suspended in a Magnus tube containing 40 ml of Tyrode solution and the muscle movement was recorded on a soot paper via an isotonic Hebel. The solution in the Magnus tube was maintained at 25±0.5° C. during the test and test compound was previously added to the solution.

Alloxan Diabetes Rats [6] = experiment: Hypoglycemic activity (b)(2): effect on alloxan diabetes rats, time course of blood sugar (o-toluidine-boric acid method); format: in vivo, rats (Wister male); set-up: unit not given here; conditions: 100 mg/kg, oral
Method: (2) Alloxan was administered intravenously at a dose of 18 mg/kg to 9-10W Wister male rats weighing 240 to 280 g. Three days after administration, the test compound was administered orally to the rats (after fasting for 4 hours) and the blood sugar level was determined before and 1, 2 and 3 hours after administration of the test compound with respect to the blood samples drawn from the jugular vein by the o-toluidine-boric acid method.

[7] = rabbit PRP, sodium arachidonate final concentration 5×10^-4 M, read-out: OC50, Arachidonic Acid
[8] = rabbit PRP, ADP final concentration 5×10^-6 M, read-out: IC50, ADP

T1 sequence (P31389 whole entry): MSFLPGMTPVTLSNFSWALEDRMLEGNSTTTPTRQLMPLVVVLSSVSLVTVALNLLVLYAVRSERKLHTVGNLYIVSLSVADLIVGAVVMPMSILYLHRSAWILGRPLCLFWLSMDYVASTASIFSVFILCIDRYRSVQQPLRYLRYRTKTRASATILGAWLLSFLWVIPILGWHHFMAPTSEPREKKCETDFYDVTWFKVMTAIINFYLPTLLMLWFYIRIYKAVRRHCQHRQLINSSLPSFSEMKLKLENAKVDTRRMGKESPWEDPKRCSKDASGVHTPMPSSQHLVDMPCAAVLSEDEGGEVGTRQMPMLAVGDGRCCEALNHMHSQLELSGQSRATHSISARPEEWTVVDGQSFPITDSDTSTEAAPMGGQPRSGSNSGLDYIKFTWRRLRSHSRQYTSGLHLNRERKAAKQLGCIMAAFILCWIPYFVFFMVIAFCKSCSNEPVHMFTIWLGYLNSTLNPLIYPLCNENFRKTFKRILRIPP

CC(=O)Oc1ccccc1C(=O)O [Acetylsalicylic Acid (Aspirin), Acetylsalicylic Acid, reference compound]
IC50 (platelet aggregation; read-out: IC50, ADP): 2000 µM | IC50 (platelet aggregation; read-out: OC50, Arachidonic Acid): 180 µM

CCCCNC(=N)NC(=N)N [Buformin, 1-Butyl-biguanide, reference compound]
hypoglycemic activity (in words) (Alloxan Diabetes Mice [1]; 150 mg/kg): weak hypoglycemic activity | % Change in Blood Sugar Level (Alloxan Diabetes Mice [1]; 150 mg/kg): -15.3% | Blood Sugar Level Mean ± S.E. (Alloxan Diabetes Mice [1]; 150 mg/kg): 273.3 ± 28.7 mg/dL | hypoglycemic activity (in words) (Alloxan Diabetes Rats [2]; 100 mg/kg): significant hypoglycemic activity | % Change in Blood Sugar Level (Alloxan Diabetes Rats [2]; 100 mg/kg): -22.9% | Blood Sugar Level Mean ± S.E. (Alloxan Diabetes Rats [2]; 100 mg/kg): 275.5 ± 6.0 mg/dL

CN1CCN(c2nc(N)c3c(n2)CCCS3)CC1 [Compound A, 4-amino-2-(N-methylpiperazino)-7,8-dihydro-6H-thiopyrano[3,2-d]pyrimidine]
ED20 (Alloxan Diabetes Mice [3]): 60 mg/kg | ED20 (Normal Mice): 127 mg/kg | LD50 at 168 h ([4]; po, read-out: LD50, p.o.): 1450 mg/kg

CNc1nc(N2CCNCC2)nc2c1SCCC2 [Compound B, 4-methylamino-2-piperazino-7,8-dihydro-6H-thiopyrano[3,2-d]pyrimidine]
ED20 (Alloxan Diabetes Mice [3]): 53 mg/kg | ED20 (Normal Mice): 37 mg/kg | LD50 at 168 h ([4]; po, read-out: LD50, p.o.): 580 mg/kg

Nc1nc2c(c(N3CCNCC3)n1)SCCC2.O=C(O)/C=C\C(=O)O.O=C(O)/C=C\C(=O)O [Compound C, 2-amino-4-piperazino-7,8-dihydro-6H-thiopyrano[3,2-d]pyrimidine dimaleate]
ED20 (Alloxan Diabetes Mice [3]): 47 mg/kg | ED20 (Normal Mice): 230 mg/kg | LD50 at 168 h ([4]; po, read-out: LD50, p.o.): 1400 mg/kg

Nc1nc(N2CCNCC2)nc2c1SCCC2 [Compound D, 4-Amino-2-piperazino-7,8-dihydro-6H--thiopyrano[3,2-d]pyrimidine Dimaleate]
ED20 (Alloxan Diabetes Mice [3]): 52 mg/kg | ED20 (Normal Mice): 11 mg/kg | LD50 at 168 h ([4]; po, read-out: LD50, p.o.): 820 mg/kg

C1CSc2c(nc(N3CCNCC3)nc2N2CCCC2)C1.O=C(O)/C=C\C(=O)O [Compound E, 2-piperazino-4-pyrrolidino-7,8-dihydro-6H-thiopyrano[3,2-d]pyrimidine maleate]
hypoglycemic activity (in words) (Alloxan Diabetes Mice [1]; 200 mg/kg): significant hypoglycemic activity | % Change in Blood Sugar Level (Alloxan Diabetes Mice [1]; 200 mg/kg): -36.3% | Blood Sugar Level Mean ± S.E. (Alloxan Diabetes Mice [1]; 200 mg/kg): 205.5 ± 29.3 mg/dL | anti-histamine activity compared with Diphenhydramine (in words) [5]: substantially equal to that of Diphenhydramine | Kb [5]: 0.0427 µM | LD50 at 168 h ([4]; iv, read-out: LD50, i.v.): 125 mg/kg | LD50 at 168 h ([4]; po, read-out: LD50, p.o.): 1170 mg/kg

CN1CCN(c2nc3c(c(N4CCCC4)n2)SCCC3)CC1.O=C(O)/C=C\C(=O)O [Compound F, 2-(N-methylpiperazino)-4-pyrrolidino-7,8-dihydro-6H-thiopyrano[3,2-d]pyrimidine maleate]
IC50 (platelet aggregation; [7]): 30 µM | Percent Inhibition, Collagen (platelet aggregation; rabbit PRP): 73% | anti-histamine activity compared with Diphenhydramine (in words) [5]: substantially equal to that of Diphenhydramine | Kb [5]: 0.0204 µM | LD50 at 168 h ([4]; iv, read-out: LD50, i.v.): 100 mg/kg | LD50 at 168 h ([4]; po, read-out: LD50, p.o.): 1250 mg/kg

C1CSc2c(nc(N3CCNCC3)nc2N2CCOCC2)C1.O=C(O)/C=C\C(=O)O [Compound G, 4-morpholino-2-piperazino-7,8-dihydro-6H-thiopyrano[3,2-d]pyrimidine maleate]
hypoglycemic activity (in words) (Alloxan Diabetes Mice [1]; 200 mg/kg): significant hypoglycemic activity | % Change in Blood Sugar Level (Alloxan Diabetes Mice [1]; 200 mg/kg): -39.5% | Blood Sugar Level Mean ± S.E. (Alloxan Diabetes Mice [1]; 200 mg/kg): 195.2 ± 39.7 mg/dL | % Change in Blood Sugar Level (Alloxan Diabetes Rats [2]; 100 mg/kg): -30.2% | Blood Sugar Level Mean ± S.E. (Alloxan Diabetes Rats [2]; 100 mg/kg): 286.3 ± 76 mg/dL | hypoglycemic activity (in words) (Alloxan Diabetes Rats [2]; 100 mg/kg, maleate): significant hypoglycemic activity; also recorded: strongest activity | Blood Sugar Level Mean ± S.E., After 1 Hr. (Alloxan Diabetes Rats [6]; 1 hour after administration, fasted 4 hours): 141.3 ± 10.4 | Blood Sugar Level Mean ± S.E., After 2 Hrs. (Alloxan Diabetes Rats [6]; 2 hours after administration, fasted 4 hours): 130.6 ± 12.6 | Blood Sugar Level Mean ± S.E., After 3 Hrs. (Alloxan Diabetes Rats [6]; 3 hours after administration, fasted 4 hours): 130.3 ± 10.3 | Blood Sugar Level Mean ± S.E., Before (Alloxan Diabetes Rats [6]; before administration (baseline)): 189.5 ± 9.4 | IC50 (platelet aggregation; [8]): 150 µM | IC50 (platelet aggregation; [7]): 750 µM | Percent Inhibition, Collagen (platelet aggregation; rabbit PRP): 95% | LD50 at 168 h ([4]; iv, read-out: LD50, i.v.): 135 mg/kg | LD50 at 168 h ([4]; po, read-out: LD50, p.o.): 960 mg/kg

CN1CCN(c2nc3c(c(N4CCOCC4)n2)SCCC3)CC1 [Compound H, 2-(N-methylpiperazino)-4-morpholino-7,8-dihydro-6H-thiopyrano[3,2-d]pyrimidine]
IC50 (platelet aggregation; [8]): 1000 µM | IC50 (platelet aggregation; [7]): 8.4 µM | Percent Inhibition, Collagen (platelet aggregation; rabbit PRP): 65% | LD50 at 168 h ([4]; iv, read-out: LD50, i.v.): 200 mg/kg | LD50 at 168 h ([4]; po, read-out: LD50, p.o.): 1580 mg/kg

CCCCNC(=O)NS(=O)(=O)c1ccc(C)cc1 [Tolbutamide, 1-Butyl-3-(p-tolylsulfonyl)-urea, reference compound]
hypoglycemic activity (in words) (Alloxan Diabetes Mice [1]; 500 mg/kg): weak hypoglycemic activity | % Change in Blood Sugar Level (Alloxan Diabetes Mice [1]; 500 mg/kg): -13.7% | Blood Sugar Level Mean ± S.E. (Alloxan Diabetes Mice [1]; 500 mg/kg): 278.4 ± 25.7 mg/dL | hypoglycemic activity (in words) (Alloxan Diabetes Rats [2]; 300 mg/kg): significant hypoglycemic activity | % Change in Blood Sugar Level (Alloxan Diabetes Rats [2]; 300 mg/kg): -18.6% | Blood Sugar Level Mean ± S.E. (Alloxan Diabetes Rats [2]; 300 mg/kg): 285.2 ± 2.8 mg/dL
